In patent US10077237B2 (Sanofi, priority 2013, dated 2018):
Counter-ions that a name gives are not always drawn.

Target: T1, recombinant human AMPK complex, containing α2β1γ2 (Homo sapiens, UniProt P54646+Q9Y478)
T1 construct: hsAMPKα2-552-His, hsAMPKβ1-2-270 and hsAMPKγ-2-569 respectively; hsAMPKβ1-2-270; hsAMPKγ-2-569; His (C); made in house; host or cells: Spodoptera frugiperda Sf21 (baculovirus)
Assay: AMPK in vitro activation assay (HTRF)
Format: biochemical
Settings: for EC50: HTRF, recombinant human α2β1γ2 AMPK, 200 μM ATP, biotinylated ACC-CREBp peptide, repeat determinations on separate lines
Outline: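 Sf21-expressed, Ni-NTA partially purified α2β1γ2 complex preincubated 30 min at room temperature with compound (0.5% DMSO) in HEPES pH 7.0, MgCl2, DTT. Reaction was started with a solution holding 200 μM ATP and 2 or 0.08 μM biotinylated ACC-CREBp peptide, run 45 min at 37° C, then read by HTRF with anti-pS133-CREB; EC50 from percent over basal.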

[1] = potentiation of AMPK activity as percent over the basal signal (without compound)

T1 sequence (P54646 2-552): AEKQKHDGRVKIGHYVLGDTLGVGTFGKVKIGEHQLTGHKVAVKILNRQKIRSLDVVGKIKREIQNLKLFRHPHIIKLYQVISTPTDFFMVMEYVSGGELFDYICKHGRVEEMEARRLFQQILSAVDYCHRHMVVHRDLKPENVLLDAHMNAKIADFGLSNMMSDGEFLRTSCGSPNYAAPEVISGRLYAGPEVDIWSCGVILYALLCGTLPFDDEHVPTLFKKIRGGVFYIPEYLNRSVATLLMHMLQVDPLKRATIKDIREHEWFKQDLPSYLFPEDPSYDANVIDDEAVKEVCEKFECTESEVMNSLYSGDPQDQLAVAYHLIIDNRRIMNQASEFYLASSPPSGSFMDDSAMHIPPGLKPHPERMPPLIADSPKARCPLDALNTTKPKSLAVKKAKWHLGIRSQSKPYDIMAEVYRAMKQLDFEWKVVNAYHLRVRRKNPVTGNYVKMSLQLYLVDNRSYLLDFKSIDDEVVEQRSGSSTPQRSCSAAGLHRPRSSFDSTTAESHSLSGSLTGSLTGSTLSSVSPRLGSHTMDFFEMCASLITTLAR
T1 sequence (Q9Y478 2-270): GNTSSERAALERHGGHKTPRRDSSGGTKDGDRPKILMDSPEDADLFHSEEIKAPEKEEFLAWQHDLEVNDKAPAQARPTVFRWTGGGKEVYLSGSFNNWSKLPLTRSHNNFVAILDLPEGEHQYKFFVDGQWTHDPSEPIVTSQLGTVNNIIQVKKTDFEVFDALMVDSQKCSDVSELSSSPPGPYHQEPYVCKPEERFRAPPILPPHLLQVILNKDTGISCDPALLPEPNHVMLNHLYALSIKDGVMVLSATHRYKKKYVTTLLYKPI
T1 sequence (Q9UGJ0 2-569 partner limits assumed): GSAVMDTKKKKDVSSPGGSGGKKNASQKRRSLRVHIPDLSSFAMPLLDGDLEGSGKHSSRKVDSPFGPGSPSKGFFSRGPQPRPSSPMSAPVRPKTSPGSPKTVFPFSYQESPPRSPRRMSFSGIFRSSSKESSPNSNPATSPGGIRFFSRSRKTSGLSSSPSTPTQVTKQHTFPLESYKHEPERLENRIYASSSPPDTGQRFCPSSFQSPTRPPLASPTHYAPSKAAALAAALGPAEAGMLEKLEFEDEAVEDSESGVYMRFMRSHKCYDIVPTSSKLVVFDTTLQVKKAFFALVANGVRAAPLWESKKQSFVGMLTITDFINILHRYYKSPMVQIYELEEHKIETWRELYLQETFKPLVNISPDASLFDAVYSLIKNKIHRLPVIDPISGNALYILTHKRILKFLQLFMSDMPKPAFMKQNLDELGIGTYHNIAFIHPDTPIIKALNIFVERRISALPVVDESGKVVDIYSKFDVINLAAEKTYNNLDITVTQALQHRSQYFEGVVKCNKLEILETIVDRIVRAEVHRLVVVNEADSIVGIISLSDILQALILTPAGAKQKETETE

Row | Compound | EC50 [nM] | Emax [1] [%] | α2β1γ2 AMPK Emax [1]
1 | Cc1cc(C(O)=C2C(=O)Nc3cc(Cl)c(-c4ccc(O)c(F)c4)cc32)on1 [Compound 44, 6-Chloro-5-(3-fluoro-4-hydroxy-phenyl)-3-[1-hydroxy-1-(3-methyl-isoxazol-5-yl)-methylidene]-1,3-dihydro-indol-2-one] | 470 | 165 | –
2 | O=C1Nc2cc(Cl)c(-c3ccc(N4CCOCC4)cc3)cc2C1=C(O)c1ccno1 [Compound 59, 6-Chloro-3-[1-hydroxy-1-isoxazol-5-yl-methylidene]-5-(4-morpholin-4-yl-phenyl)-1,3-dihydro-indol-2-one] | 29 | 245 | –
3 | COc1ccc(C(O)=C2C(=O)Nc3cc(Cl)c(-c4ccc(N5CCOCC5)cc4)cc32)nc1 [Compound 140, 6-chloro-3-[hydroxy-(5-methoxy-2-pyridyl)methylene]-5-(4-morpholinophenyl)indolin-2-one] | 21 | 227 | –
4 | Cc1cc(C(O)=C2C(=O)Nc3cc(Cl)c(-c4ccc(N5CCN(C)CC5)cc4)cc32)on1 [Compound 74, 6-Chloro-3-[1-hydroxy-1-(3-methyl-isoxazol-5-yl)methylidene]-5-[4-(4-methyl-piperazin-1-yl)-phenyl]-1,3-dihydro-indol-2-one, hydrochloride] | 112 | 213 | –
5 | O=C1Nc2cc(Cl)c(-c3ccc(C4(CO)CC4)cc3)cc2C1=C([O-])c1ccccc1F.[Na+] [Compound 47, 6-Chloro-3-[1-(2-fluoro-phenyl)-1-hydroxy-methylidene]-5-[4-(1-hydroxymethyl-cyclopropyl)-phenyl]-1,3-dihydro-indol-2-one, sodium salt] | 25 | – | (94) %
6 | Cc1cc(C(O)=C2C(=O)Nc3cc(C)c(-c4ccc(N5CCOCC5)cc4)cc32)on1 [Compound 31, 3-[1-Hydroxy-1-(3-methyl-isoxazol-5-yl)-methylidene]-6-methyl-5-(4-morpholin-4-yl-phenyl)-1,3-dihydro-indol-2-one] | 540 | 147 | –
7 | O=C1Nc2cc(Cl)c(-c3ccc(N4CCOCC4)cc3)cc2C1=C(O)c1cccc(C(=O)O)c1 [Compound 4, 3-{[6-Chloro-5-(4-morpholin-4-yl-phenyl)-2-oxo-1,2-dihydro-indolylidene]-hydroxy-methyl}-benzoic acid] | 15 | 97 | –
8 | COc1cc(C(O)=C2C(=O)Nc3cc(Cl)c(-c4ccc(C5CCN(C)C5)cc4)cc32)on1 (stereo not drawn) [Compound 133, 6-chloro-3-[hydroxy-(3-methoxyisoxazol-5-yl)methylene]-5-[4-(1-methylpyrrolidin-3-yl)phenyl]indolin-2-one hydrochloride] | 14 | 397 | –

Compounds with a lower EC50, results first:

Row | EC50 [nM] | Emax [1] [%] | α2β1γ2 AMPK Emax [1] | Compound
9 | 6 | 148 | – | O=C1Nc2cc(Cl)c(-c3ccc(C4(CO)CC4)cc3)cc2C1=C(O)c1cc(Br)no1 [Compound 73, 3-[1-(3-Bromo-isoxazol-5-yl)-1-hydroxy-methylidene]-6-chloro-5-[4-(1-hydroxymethyl-cyclopropyl)phenyl]-1,3-dihydro-indol-2-one]
10 | 0.7 | 191 | – | COc1cc(C(O)=C2C(=O)Nc3cc(Cl)c(-c4ccc(N5CCC5)cc4)cc32)on1 [Compound 162, 5-[4-(azetidin-1-yl)phenyl]6-chloro-3-[hydroxy-(3-methoxyisoxazol-5-yl)methylene]indolin-2-one]
11 | 3 | 196 | – | COc1ccc(C(O)=C2C(=O)Nc3cc(Cl)c(-c4ccc(C5(CO)CC5)cc4)cc32)c(OC)c1 [Compound 163, 6-chloro-3-[(2,4-dimethoxyphenyl)hydroxy-methylene]-5-[4-[1-(hydroxymethyl)cyclopropyl]phenyl]indolin-2-one]
12 | 7 | 172 | – | COc1cc(C(O)=C2C(=O)Nc3cc(Cl)c(-c4ccc(C(O)CO)cc4)cc32)on1 (stereo not drawn) [Compound 122, 6-chloro-5-[4-(1,2-dihydroxyethyl)phenyl]-3-[hydroxy-(3-methoxyisoxazol-5-yl)methylene]indolin-2-one]
